Assay results from PubChem BioAssay (NCI).
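In this assay, cells in 96-well plates receive the compound at five concentrations for 48 hours. Endpoints are linearly interpolated between the surrounding concentrations. TGI is the concentration that stops growth completely.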

What was measured:
Assay in all cases: NCI anticancer screen, dose series, 48 h
[1] = tested on: SNB-75 CNS
[2] = tested on: MDA-MB-435
[3] = tested on: HCT-116 colon
[4] = tested on: CAKI-1 renal
[5] = tested on: SF-295 CNS
[6] = tested on: MCF7 breast
[7] = tested on: T-47D breast
[8] = tested on: OVCAR-3 ovarian
[9] = tested on: SK-OV-3 ovarian
[10] = tested on: MDA-MB-231 breast
[11] = tested on: RPMI-8226 leukemia

Row | Compound | TGI [1] | TGI [2] | TGI [3] | TGI [4] | TGI [5] | TGI [6] | TGI [7] | TGI [8] | TGI [9] | TGI [10] | TGI [11]
1 | C=C1C[C@H](O)[C@H](Br)C(C)(C)C12CCC(C)(Cl)C(Br)C2 (some centres undefined) | 11.2 µM | 11.7 µM | 16.1 µM | 24.5 µM | 8.13 µM | 11.2 µM | 13.5 µM | 15.7 µM | 12.7 µM | 11.3 µM | 3.76 µM
2 | C[C@@H]1CC[C@@]2(OC1)O[C@H]1C[C@H]3[C@@H]4CC[C@H]5C[C@@H](OC6OC(CO)C(OC7OC(CO)C(O)C(OC8OCC(O)C(O)C8O)C7OC7OC(CO)C(O)C(O)C7O)C(O)C6O)[C@H](O)C[C@]5(C)[C@H]4CC[C@]3(C)[C@H]1[C@@H]2C (some centres undefined) | 27.9 µM | 31.8 µM | 17.8 µM | 12.5 µM | 13.4 µM | 1.68 µM | 28 µM | 9.56 µM | 29.8 µM | 6.71 µM | 30.1 µM
3 | O=c1cc(-c2ccccc2)[nH]c2nccn12 | > 10 µM | > 10 µM | > 10 µM | > 10 µM | > 10 µM | > 10 µM | > 10 µM | > 10 µM | > 10 µM | > 10 µM | > 10 µM
4 | O=C(c1ccccc1)N1C(=S)N(c2ccccn2)C(=Nc2ccccc2)C1=Nc1ccccc1 | > 100 µM | > 58 µM | > 77.3 µM | 43.8 µM | > 73.8 µM | > 100 µM | > 62.1 µM | 45.6 µM | > 86.6 µM | > 71.9 µM | 31.1 µM
5 | CN(C)c1ccc(C=C2C(=O)NC(=S)NC2=O)c2ccccc12 | > 100 µM | > 100 µM | > 100 µM | > 100 µM | > 100 µM | > 100 µM | > 100 µM | > 100 µM | > 100 µM | > 100 µM | > 100 µM
6 | CCOC(=O)c1c(NC(=S)Nc2ccccc2)sc2c1CCOC2 | 62.1 µM | > 100 µM | > 100 µM | > 100 µM | > 100 µM | > 100 µM | > 100 µM | > 100 µM | > 100 µM | > 100 µM | > 100 µM
7 | Cc1ccc(N/C(SCc2ccccc2)=C(\C(Cl)=C(Cl)Cl)[N+](=O)[O-])c(C)c1 | 85.9 µM | 26.1 µM | 37 µM | 50.8 µM | 94.9 µM | > 100 µM | 69.3 µM | 40.2 µM | > 100 µM | 34.8 µM | > 100 µM
8 | O=C(CC(Cl)=C(Cl)Cl)c1ccccc1 | > 100 µM | > 100 µM | 45.2 µM | 53.6 µM | > 100 µM | > 100 µM | > 100 µM | 81.4 µM | > 100 µM | > 100 µM | 41.9 µM
9 | COC(=O)CCC(NC(=O)OC(C)(C)C)C(=O)NC(Cc1ccc(NC(=O)CCCC(C)=O)cc1)C(=O)NC(CCC(=O)OC)C(=O)OC (centres undefined) | > 100 µM | > 100 µM | > 100 µM | > 100 µM | > 100 µM | > 100 µM | > 100 µM | > 100 µM | > 100 µM | > 100 µM | > 100 µM
10 | Cc1ccc2c(/C=C/c3ccc(N(C)C)cc3)ccc(C(C)C)cc1-2 | > 100 µM | > 100 µM | > 100 µM | > 100 µM | > 100 µM | > 100 µM | > 100 µM | > 100 µM | > 100 µM | > 100 µM | > 100 µM
11 | N#Cc1c(O)c(/C=N/c2ncccn2)c(=O)n2c1[nH]c1ccccc12 | > 100 µM | > 100 µM | > 100 µM | > 100 µM | > 100 µM | > 100 µM | > 100 µM | > 100 µM | > 100 µM | > 100 µM | > 100 µM
12 | CCOc1ccc(N/C(=C(/C(Cl)=C(/Cl)NC(C)(C)C)[N+](=O)[O-])n2nnc3ccccc32)cc1 | 54 µM | 33.6 µM | 33.7 µM | 35.3 µM | 78.8 µM | 65.1 µM | 32 µM | 72.2 µM | > 100 µM | 37.6 µM | > 100 µM
13 | O=C1CC(=O)NC(=NNS(=O)(=O)c2ccc(Cl)cc2)N1 | > 100 µM | > 100 µM | > 100 µM | > 100 µM | > 100 µM | > 100 µM | > 100 µM | > 100 µM | > 100 µM | > 100 µM | > 100 µM
14 | Cc1[nH]c(=O)nc(NNCc2ccc(Cl)cc2)c1C(=O)Nc1ccc(Cl)cc1 | > 100 µM | > 100 µM | > 100 µM | > 100 µM | > 100 µM | > 100 µM | > 100 µM | > 100 µM | > 100 µM | > 100 µM | > 100 µM
